Assay results reported in patent US9340574B2, “Inhibitors of protein tyrosine phosphatases” (Indiana University Research and Technology Corporation, priority 2012, dated 2016).

What was measured:
[1] = target: Laforin (Homo sapiens (Human), UniProt O95278); test: pNPP hydrolysis enzyme assay, Laforin; format: biochemical
Protocol: Enzyme kinetic assay. PTP activity was assayed using p-nitrophenyl phosphate (pNPP) as a substrate in 3,3-dimethylglutarate buffer (50 mM 3,3-dimethylglutarate, pH 7.0, 1 mM EDTA, 150 mM NaCl, 2 mM DTT, 0.1 mg/mL BSA) at 25° C. The assays were performed in 96-well plates. Normally, to determine the IC50 values, the reaction was initiated by the addition of enzyme (final concentration at 10 nM) to a reaction mixture (0.2 mL) containing 2 mM (Km for the substrate) pNPP with various concentrations of inhibitors. The reaction rate was measured using a SpectraMax Plus 384 Microplate Spectrophotometer (Molecular Devices). To determine the mode of inhibition, the reactions were initiated by the addition of PTP-MEG2 to the reaction mixtures (0.2 mL) containing various concentrations of pNPP with different concentrations of the inhibitor 7. Data were fitted using SigmaPlot Enzyme Kinetics Module (Systat Software, Inc.).

[2] = test system: insulin signaling in mouse primary hepatocytes; test: Insulin signaling in mouse primary hepatocytes (Western blot); format: cell-based; conditions: for increase of phosphorylated IR (Tyr1162/1163): 1 hour pretreatment, 5 nM insulin 5 minutes, vs DMSO
Protocol: FIGS. 4A-B depict the ability of PTP-MEG2 inhibitor Compound 7 to sensitize insulin signaling in primary hepatocytes. […] Mouse primary hepatocytes were cultured in 0.5% FBS DMEM medium overnight. Prior to insulin stimulation, the cells were pretreated with Compound 7 or 8 for 1 hour. Then the cells were stimulated with 5 nM insulin for 5 minutes. Insulin signaling was analyzed by Western Blots using phospho-specific antibodies. […] Mouse primary hepatocytes were cultured in DMEM medium plus 0.5% FBS for overnight in the presence or absence of insulin or Compound 7 or 8. Then the cells were harvested for mRNA isolation and gene expression analysis using real-time PCR. The mRNA levels of Foxo1 target genes were normalized with Ppia as an internal control. Data are presented as mean±SEM. *, P<0.05 for Compound 7 vs. DMSO; #, P<0.05 for INS+Compound 7 vs. INS alone.
FIG. 10 depicts the time course of pIR (Tyr 1162/63) level. Primary hepatocyte cells were starved overnight. Prior to insulin stimulation, the cells were preincubated with either vehicle DMSO, Compound 7, or Compound 8 for 1 hour. Then the cells were stimulated with 5 nM Insulin for 0, 5, 30, 60 min. Cell lysates were harvested for Western Blot, using anti-pIR (Tyr 1162/63) antibodies.
Mouse primary hepatocytes were isolated and cultured in DMEM medium with 0.5% FBS for 12 hours, and then were incubated with either vehicle DMSO, Compound 7 (100 nM), or Compound 8 (100 nM) for one hour. Phosphorylated IR, Gsk3β, and Foxo1 and the corresponding total proteins were analyzed by Western blots.
PTP-MEG2 inhibitor Compound 7 augments insulin signaling in cells. Given the excellent potency and selectivity of Compound 7 toward PTP-MEG2, we proceeded to evaluate its effect on PTP-MEG2-dependent signaling inside the cell. To assess the effects of Compound 7 on insulin signaling, we pretreated mouse primary hepatocytes with Compound 7 for 1 hour and then stimulated the cells with 5 nM insulin for 5 minutes. […] Remarkably, the phosphorylated form of IR was increased 50% and 100% at concentrations of 50 nM (1.5×Ki) and 100 nM of Compound 7, respectively (FIG. 4A and FIG. 8). […] Phosphorylation of Akt (Ser473) was increased by 3.1 and 4.5 fold; phosphorylation of GSK-3β (Ser9) was increased by 1.5 and 2.0 fold; and phosphorylation of Foxo1 (Ser253) was increased by 2.1 and 2.9 fold at 100 and 200 nM concentrations of Compound 7, respectively.
(§1) Western blot analysis. Cells were homogenized in the lysis buffer (50 mM Hepes, pH 7.5, 150 mM NaCl, 10% Glycerol, 1% Triton X-100, 1.5 mM MgCl2, 1 mM EGTA, 10 μM Sodium Pyrophosphate, 100 mM sodium fluoride and freshly added 100 μM sodium vanadate, 1 mM PMSF, 10 μg/ml Aprotinin, and 10 μg/mL Leupeptin). Protein extracts were resolved on an SDS-PAGE gel and transferred to nitrocellulose membrane. Proteins were probed using the following antibodies: IR(pY1162/63), IR (Santa Cruz Biotechnology), Akt(pS473), Aid, GSK3β(pS9), GSK3β, Foxo1(pS256), Foxo1, Erk1/2(pT202/Y204), Erk1/2 (Cell Signaling Technology). Protein signals were detected by incubation with HRP-conjugated secondary antibodies, followed by ECL detection reagent (Pierce). Western blots were scanned and quantified using the Quantity One software (Bio-Rad).

[3] = test system: 3T3-L1 differentiated adipocytes; test: Insulin signaling in 3T3-L1 differentiated adipocytes; format: cell-based; conditions: 3T3-L1 adipocytes, 1 hour pretreatment before insulin
Protocol: (§2) Cell lysate (20 μg protein) was subjected to 10% SDS-PAGE and probed with phospho-Akt, phospho-IR (Y1162/1163) or Akt antibody, respectively. […] Cell lysate (20 μg protein) was subjected to 10% SDS-PAGE and probed with phospho-IR(Y1162/1163), phospho-Akt (pS473) or total Akt antibody, respectively. […] Cell lysate (20 μg protein) or insulin receptor immunoprecipitation beads were subjected to 10% SDS-PAGE and probed with phospho-Akt, Akt, insulin receptor beta or phospho-tyrosine antibody (4G10), respectively. The non-specific band from insulin receptor immunoprecipitates served as a loading control for insulin receptor and phospho-insulin receptor.
as §1, with “Proteins were probed using the following antibodies: IR(pY1162/63), IR (Santa Cruz Biotechnology), Akt(pS473), Aid, GSK3β(pS9), GSK3β, Foxo1(pS256), Foxo1, Erk1/2(pT202/Y204), Erk1/2 (Cell Signaling Technology).” left out

[4] = test system: C2C12 myotubes; test: Insulin signaling in C2C12 myotubes; format: cell-based; conditions: 1 hour pretreatment, 100 nM insulin 30 min
Protocol: as §2
as §1, with “Proteins were probed using the following antibodies: IR(pY1162/63), IR (Santa Cruz Biotechnology), Akt(pS473), Aid, GSK3β(pS9), GSK3β, Foxo1(pS256), Foxo1, Erk1/2(pT202/Y204), Erk1/2 (Cell Signaling Technology).” left out

[5] = test system: insulin signaling in metabolic tissues of diet-induced obese mice; test: Insulin signaling in liver, skeletal muscle and white adipose tissue of diet-induced obese mice (immunoblot); format: in vivo, mouse; conditions: skeletal muscle, white adipose tissue, 2-week injections, insulin bolus
Excerpt: To investigate the underlying mechanisms responsible for the improved insulin sensitivity in Compound 7 treated diet-induced obese mice, we analyzed key insulin signaling events in metabolically active tissues. Phosphorylation of Tyr1162/1163 residues in IR was stimulated 2-3 fold higher in the liver, skeletal muscle, and white adipose tissue in Compound 7 treated mice than that in control mice (FIGS. 5G & H). […] These biochemical data are consistent with the animal phenotype that Compound 7 can effectively improve insulin sensitivity in diet-induced obese mice. Our finding that chemical inhibition of PTP-MEG2 augments insulin signaling, insulin sensitivity and glucose homeostasis in insulin resistant mice is consistent with the observation that silencing of PTP-MEG2 in the livers of db/db mice results in a reversal of insulin resistance and hyperglycemia (Cho, et al., Cell Metab. 2006, 3, 367-378). Moreover, our in vivo data also serve as proof-of-concept and support the notion that specific inhibitors of PTP-MEG2 may be effective anti-diabetes agents.

Laforin, sequence (O95278 whole entry, species assumed): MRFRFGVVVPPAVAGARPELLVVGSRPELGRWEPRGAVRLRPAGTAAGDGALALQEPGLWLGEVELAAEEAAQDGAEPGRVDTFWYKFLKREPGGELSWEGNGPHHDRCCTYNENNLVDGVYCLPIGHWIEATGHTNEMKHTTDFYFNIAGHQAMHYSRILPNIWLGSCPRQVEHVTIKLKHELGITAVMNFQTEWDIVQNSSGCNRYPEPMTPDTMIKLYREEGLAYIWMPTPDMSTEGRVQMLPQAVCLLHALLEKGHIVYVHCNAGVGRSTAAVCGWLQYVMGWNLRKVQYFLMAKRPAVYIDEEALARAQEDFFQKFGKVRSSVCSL

## COc1cc(CC(=O)NCC(NC(=O)C(CCCNC(=O)c2cccc(I)c2)NC(=O)C(Cc2ccc(C(F)(F)P(=O)(O)O)cc2)NC(=O)c2ccc(C)c(Br)c2)C(N)=O)ccc1O (stereo not shown) [Compound 7]
[1]
  IC50: > 10000 nM
[2]; 50 nM compound
  increase of phosphorylated IR (Tyr1162/1163): 50%
[2]; 100 nM compound, 5 nM insulin
  increase of Akt (Ser473) phosphorylation: 3.1 fold
  increase of Foxo1 (Ser253) phosphorylation: 2.1 fold
  increase of GSK-3β (Ser9) phosphorylation: 1.5 fold
[2]; 100 nM compound
  increase of phosphorylated IR (Tyr1162/1163): 100%
[2]; 100 nM, one hour, no insulin
  insulin signaling pathway under basal conditions: enhanced
[2]; 200 nM compound, 5 nM insulin
  increase of Akt (Ser473) phosphorylation: 4.5 fold
  increase of Foxo1 (Ser253) phosphorylation: 2.9 fold
  increase of GSK-3β (Ser9) phosphorylation: 2.0 fold
[2]; insulin-stimulated hepatocytes
  Erk1/2 activation: strongly enhanced
[2]; no insulin, 100 nM, 1 hour
  increase of basal phosphorylation of Foxo1: 2.2 fold
  increase of basal phosphorylation of GSK-3β: 2.0 fold
  increase of basal phosphorylation of IR: 2.1 fold
[2]; time course 0, 5, 30, 60 min, 5 nM insulin
  duration of potentiation of insulin stimulated IR phosphorylation: at least 1 hour
[3]
  insulin signaling (phospho-Akt, phospho-IR): augmented insulin signaling
[4]
  insulin signaling (phospho-Akt, phospho-IR): augmented insulin signaling
[5]
  increase of Akt (Ser473) phosphorylation: 40-60%
  phosphorylation of Tyr1162/1163 in IR, higher than control mice: 2-3 fold
